Key:
[1] = biological target: T1, GPR10 (Homo sapiens, UniProt P49683); details: cells transfected with GPR10; cited from earlier work
T1 sequence (P49683 1-370): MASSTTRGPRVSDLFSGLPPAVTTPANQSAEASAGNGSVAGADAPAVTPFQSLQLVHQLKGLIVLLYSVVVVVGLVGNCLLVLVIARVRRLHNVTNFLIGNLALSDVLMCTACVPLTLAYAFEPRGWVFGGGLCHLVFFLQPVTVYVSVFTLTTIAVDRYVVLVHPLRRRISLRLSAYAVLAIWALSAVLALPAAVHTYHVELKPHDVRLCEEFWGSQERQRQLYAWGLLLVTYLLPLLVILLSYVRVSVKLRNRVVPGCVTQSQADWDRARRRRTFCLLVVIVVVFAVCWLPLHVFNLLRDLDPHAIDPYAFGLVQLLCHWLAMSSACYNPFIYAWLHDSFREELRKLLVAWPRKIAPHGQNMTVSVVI

[2] = biological target: T1, GPR10; details: read-out: apparent affinity for GPR10; cited from earlier work
[3] = test system: AMPA receptor-mediated thalamic oscillatory activity; assay: AMPA receptor-driven oscillatory activity, extracellular recording from RTN in thalamic slices; set-up: species or system Sprague-Dawley rats
Description: (§1) Horizontal thalamic slices (400 μm) were prepared from Sprague-Dawley rats (postnatal rats 13-15) using a vibratome (Leica, VTlOOOS). The slices were transferred to a recording chamber after at least 1 hr recovery, and were superfused with artificial cerebrospinal fluid (aCSF) equilibrated with 95% 02/5% CO2 at 0.5 ml/mm. The aCSF contained (in mM): NaCl 126, KCl2.5, NaH2PO4 1.25, CaCl2 2, MgSO4 0.63, NaHCO3 26, and glucose 10. All experiments were carried out in the presence of 10 μM bicuculline maleate and cytochrome c (100 μg/ml) at 34° C. A glass electrode filled with 2 M NaCl was positioned in the nucleus of reticular thalamus (RTN), and extracellular recording was made in response to stimulation of the internal capsule (1-50 μA) every 20-30 sec. After establishing stable oscillatory activity, PrRP was applied for 15-20 min. Paired Student's t-Test was used for statistical analysis. The data were digitized at 1-5 kHz with the Neuronal Activity Acquisition Program (Eclectek Enterprise).
The bar on the left indicates the duration of peptide application. The traces at the bottom show representative responses before and in the presence of PrRP, taken at the time points indicated with arrow heads. […]

[4] = test system: sleeping Sprague-Dawley rats; assay: EEG/EMG sleep/wake recording in sleeping rats after i.c.v. infusion; type: in vivo, rat
Description: To determine if PrRP modulates sleep/wake or arousal states, varying doses of PrRP were injected i.c.v. into sleeping rats. EEG and EMG were recorded for 150 min in three groups, each consisting of 6 rats, that received either vehicle, 1 nmol PrRP, or 10 nmol PrRP. Analyses were conducted across five consecutive 30-min epochs; vehicle or PrRP were injected at the end of the second epoch. Vehicle-treated rats spent a substantial portion of the entire testing period asleep with characteristic EEG/EMG recordings. EEG and EMG recordings were made from Male Sprague-Dawley rats (300-400 g, Sasco, Oregon, Wis.) according to the method described previously (Berridge et al., J. Neurosci., 16:6999-7009 (1996)).
Rats were housed in pairs for at least 7-days prior to surgery with ad lib access to food and water on an 11:13 hour light:dark cycle (lights on 7:00 a.m.). Approximately 5 μl of vehicle or PrRP31 dissolved in vehicle ([…]) was infused intracerebroventricularly through a pre-implanted cannula (Berridge et al., supra (1996)). Artificial extracellular fluid (147 mM NaCl, 1.3 mM CaCl2, 0.9 mM MgCl2, 2.5 mM KCl, 5.0 mM NaH2PO4; pH 7.4) plus 200 μg/ml cytochrome c served as vehicle. Infusions were made over a 2-min period using a microprocessor-controlled infusion pump (Harvard Apparatus, South Natick, Mass.). Cortical EEG (ECoG) from the frontal cortex and EMG from the dorsal neck muscles were recorded for 60 min prior to infusion and 90 min following infusion. To be scored as a distinct epoch, the appropriate ECoG and EMG activity patterns needed to persist for a minimum of 15 sec. Time spent in each state was scored and totaled for the five 30 min epochs of the observation period, two during the preinfusion period and three during the post-infusion period. The location of the infusion needle was verified morphologically after each experiment. Data were only used for analysis when EEG recordings were electrically adequate and infusion needle placement was accurate. Statistical analysis was performed using a two-way mixed-design ANOVA with drug treatment as the between-subjects variable and time as the within-subjects variable. Post-hoc analyses were conducted using Tukey's HSD test.
FIGS. 7B and 7C show the effects of varying concentrations of PrRP infused into the lateral ventricle on total time spent awake (FIG. 7B) and slow-wave slept (FIG. 7C). Symbols represent mean±SEM of the time (sec) spent in the two different behavioral state categories of six animals per 30-min epoch. PRE1 and PRE2 represent pre-infusion epochs. POST1-POST3 represent post-infusion epochs. Vehicle-treated rats spent a substantial proportion of the testing period asleep.

[5] = biological target: T2, PrRP receptor (Homo sapiens, UniProt P49683); details: mammalian cells recombinantly expressing PrRP receptor; cited from earlier work
T2 construct: expressed in transfected cells
T2 sequence (P49683 1-370): T1 sequence (P49683 1-370)

[6] = test system: NMDA receptor-mediated thalamic oscillatory activity; assay: NMDA receptor-driven oscillatory activity in thalamic slices (low Mg2+ aCSF with CNQX); set-up: species or system Sprague-Dawley rats; details: 10 μM; low Mg2+ (0.1 mM) aCSF with 10 μM CNQX; n=4
Description: as §1
It was next investigated whether the suppression of RTN oscillatory activity by PrRP is the consequence of AMPA receptor modulation or some general cellular effect. […] The above experiment was thus repeated in a low Mg^2+ (0.1 mM)-aCSF containing 10 μM of the AMPA receptor antagonist CNQX.

[7] = test system: GAERS (Genetic Absence Epilepsy Rats from Strasbourg); assay: absence seizure activity (spike and wave discharges, EEG) in GAERS after ICV injection; type: in vivo, rat
Description: Electroencephalogram (EEG) recordings and intracerebroventricular (ICV) injection into GAERS were performed essentially as described in Liu et al., Brain Res. 545:1-7 (1991). Briefly, six male GAERS (300-400 g) were implanted stereotaxically (AP=−0.8, ML=1.2, CV=3 mm, with bregma as reference) with a permanent stainless steel cannula under pentobarbital anesthesia (40 mg/kg i.p.). All rats were also implanted bilaterally with 4 stainless-steel electrodes at the frontal and parietal cortex and connected to a microconnector. Both the guide cannulae and EEG electrodes were anchored to the skull using retaining screws and dental acrylic cement.
After one week of recovery, stainless steel injection cannulae were introduced into the guide cannulae so as to extend 2-4 mm beyond their tips. Injection cannulae were connected to a 10 μl microsyringe driven by a pump. Five microliters saline or peptides at various concentrations were microinjected over 1 min through the cannulae while taking EEG recordings continuously throughout the duration of the experiment, in freely moving animals. During EEG recordings the rats were carefully watched and were prevented from falling asleep by gentle sensory stimulation. Seizure frequency was determined as a cumulative duration of spike and wave discharges per consecutive 20 minute periods (seconds of seizure activity per 20 minute recording) after the initial injection. Statistical analysis was performed using the Wilcoxon test.
PrRP was administered intracerebroventricularly into GAERS rats. EEG was taken throughout the course of the experiment and time spent in seizures (spike and wave discharges (SWD) duration) was tabulated for 20 minute intervals from the initial infusion of either aCSF control or various peptide concentrations. Data from six animals receiving the same treatment were pooled. In comparison to aCSF control, PrRP was able to dose-dependently suppress seizure activity in this animal model (FIGS. 5A-5D). […] This seizure suppressing activity remained significant 60 to 80 minutes after peptide injection.
The chart calibration was 200 microV/1 sec.

[8] = test system: rat anterior pituitary cells; details: rat anterior pituitary cells in vitro; cited from earlier work

IRPVGRF [PrRP(25-31)]
calcium mobilization [1]: mobilizes calcium
Kd [2]: 200 nM

Prolactin Releasing Peptide [PrRP]
maximum suppression of number of oscillations ([3]; 10 μM, with DL-APV, bicuculline): approximately 40%
inhibition of number of oscillations ([3]; 20 μM, compared with 10 μM): comparable degree of inhibition
total time spent awake ([4]; 1 nmol i.c.v., post-infusion epochs): only a trend
conversion to the awake state ([4]; 10 nmol i.c.v.): nearly complete
duration of awake state ([4]; 10 nmol i.c.v.): lasted for well over an hour
slow-wave sleep ([4]; 10 nmol i.c.v.): near-complete suppression
total time spent awake ([4]; 10 nmol i.c.v., post-infusion epochs (POST1, POST2)): significantly increased
onset of normal waking EEG/EMG patterns ([4]; injected during sleep phase): within minutes
arachidonic acid metabolite release [5]: leads to activation of arachidonic acid metabolite release
effect on NMDA receptor-driven oscillation [6]: no discernible effect
calcium mobilization [1]: leads to calcium mobilization
SWD duration, recovery ([7]; 10 nmol ICV, after 40 minutes): returned to baseline
SWD duration ([7]; 10 nmol ICV, first 20 minutes): reduced by half
reduction of seizure activity ([7]; 50 nmol ICV): 75%
reduction of seizure activity ([7]; 100 nmol ICV, at 20 minutes): ~100%
other mobility or behavioral changes ([7]; all peptide concentrations (10-100 nmol ICV)): No other mobility or behavioral changes were observed

SRAHQHSMEIRTPDINPAWYAGRGIRPVGRF [PrRP-31]
prolactin-releasing activity [8]: having prolactin-releasing activity
Kd [2]: ~1 nM

TPDINPAWYAGRGIRPVGRF [PrRP-20]
prolactin-releasing activity [8]: having prolactin-releasing activity
Kd [2]: ~1 nM

Reference: patent US6884596B2, “Screening and therapeutic methods for promoting wakefulness and sleep” (The Regents of the University of California, priority 2000, dated 2005)
